Data taken from the supplement of paper PMC8617591.

Assays:
[1] = tested on: Mycobacterium tuberculosis Erdman (autoluminescent); test: FIC90 (Loewe) at 90% inhibition (log2); higher = more antagonistic
Protocol: (§1)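 DiaMOND equipotent two-drug combination dose responses against autoluminescent M. tuberculosis Erdman in 8 in vitro models. Read-out is OD600, or luminescence for the intracellular and dormancy models, normalised to untreated wells. Hill-fit Einf, AUC25 and GRinf are potency metrics; FIC50 and FIC90 are Loewe-additivity fractional inhibitory concentrations, given as log2 (negative = synergy). Replicates are averaged.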

[2] = tested on: Mycobacterium tuberculosis Erdman (autoluminescent); test: Einf, fitted maximum growth inhibition of combination (fraction); higher = stronger maximal inhibition
Protocol: as §1

[3] = tested on: Mycobacterium tuberculosis Erdman (autoluminescent); test: GRinf, maximum normalised growth rate inhibition (unitless (-1 to 1)); higher = less effect (negative = killing)
Protocol: as §1

[4] = tested on: Mycobacterium tuberculosis Erdman (autoluminescent); test: AUC25, normalised area under dose response up to IC25 (fraction (0-1)); higher = more potent at low dose
Protocol: as §1

[5] = tested on: Mycobacterium tuberculosis Erdman (autoluminescent); test: FIC50 (Loewe) at 50% inhibition (log2); higher = more antagonistic
Protocol: as §1

CC[C@@H](CO)NCCN[C@@H](CC)CO [ethambutol] + COc1c(N2C[C@@H]3CCCN[C@@H]3C2)c(F)cc2c(=O)c(C(=O)O)cn(C3CC3)c12 [moxifloxacin]
Details | AUC25, [4] | Einf, [2] | FIC50, [5] | FIC90, [1] | GRinf, [3]
in vitro model: acidic pH 5.7, time point: constant (~7 days, model-specific) | 0.0862 | 0.734 | -0.277 | – | -0.475
in vitro model: acidic pH 5.7, time point: terminal (~4-5 doublings, model-specific) | 0.0741 | 0.954 | 0.597 | 0.0622 | -0.293
in vitro model: intracellular J774, time point: constant = terminal | – | 0.983 | – | -1.25 | -0.327

Details | AUC25, [4] | Einf, [2] | FIC50, [5] | FIC90, [1] | GRinf, [3]
in vitro model: butyrate, time point: constant (~7 days, model-specific) | 0.0864 | 0.923 | 0.483 | – | -0.00896
in vitro model: butyrate, time point: terminal (~4-5 doublings, model-specific) | 0.0649 | 0.968 | 0.451 | 0.0888 | -0.0343
in vitro model: cholesterol 0.05 mM, time point: constant (~7 days, model-specific) | 0.0757 | 0.731 | 0.0661 | – | -0.25
in vitro model: cholesterol 0.05 mM, time point: terminal (~4-5 doublings, model-specific) | 0.0944 | 0.944 | 0.765 | 0.527 | -0.264
in vitro model: cholesterol-high 0.2 mM, time point: constant (~7 days, model-specific) | 0.0274 | 0.942 | 0.681 | – | -0.404
in vitro model: cholesterol-high 0.2 mM, time point: terminal (~4-5 doublings, model-specific) | 0.0429 | 0.999 | 0.886 | 0.669 | -0.639
in vitro model: dormancy (butyrate + nitrate, low O2), time point: constant (~7 days, model-specific) | 0.105 | 0.833 | 0.352 | – | 0.45
in vitro model: dormancy (butyrate + nitrate, low O2), time point: terminal (~4-5 doublings, model-specific) | 0.0964 | 0.967 | -0.052 | 0.0461 | -0.155
in vitro model: standard 7H9 glycerol, time point: constant = terminal | 0.066 | 0.975 | 0.0276 | -0.116 | -0.21
in vitro model: valerate, time point: constant (~7 days, model-specific) | 0.0569 | 0.878 | 0.703 | – | -0.0437
in vitro model: valerate, time point: terminal (~4-5 doublings, model-specific) | 0.0611 | 0.955 | 0.344 | -0.489 | -0.0314

CC[C@@H](CO)NCCN[C@@H](CC)CO [ethambutol] + NC(=O)c1cnccn1 [pyrazinamide]
Details | AUC25, [4] | Einf, [2] | FIC50, [5] | FIC90, [1] | GRinf, [3]
in vitro model: acidic pH 5.7, time point: constant (~7 days, model-specific) | 0.0998 | 0.866 | -0.632 | – | -0.453
in vitro model: acidic pH 5.7, time point: terminal (~4-5 doublings, model-specific) | 0.0625 | 0.968 | 0.212 | -0.791 | -0.281
in vitro model: intracellular J774, time point: constant = terminal | – | 0.994 | – | -0.166 | -0.569

Details | AUC25, [4] | Einf, [2] | FIC50, [5] | FIC90, [1] | GRinf, [3]
in vitro model: butyrate, time point: constant (~7 days, model-specific) | 0.0986 | 0.866 | 0.466 | – | 0.133
in vitro model: butyrate, time point: terminal (~4-5 doublings, model-specific) | 0.0883 | 0.817 | 0.636 | – | -0.101
in vitro model: cholesterol 0.05 mM, time point: constant (~7 days, model-specific) | 0.129 | 0.722 | – | – | -0.326
in vitro model: cholesterol 0.05 mM, time point: terminal (~4-5 doublings, model-specific) | 0.14 | 0.901 | -0.0968 | – | -0.224
in vitro model: cholesterol-high 0.2 mM, time point: constant (~7 days, model-specific) | 0.0356 | 0.843 | 0.961 | – | -0.204
in vitro model: cholesterol-high 0.2 mM, time point: terminal (~4-5 doublings, model-specific) | 0.0539 | 0.999 | 0.865 | 0.821 | -0.777
in vitro model: dormancy (butyrate + nitrate, low O2), time point: constant (~7 days, model-specific) | 0.0925 | 0.813 | -0.134 | – | 0.463
in vitro model: dormancy (butyrate + nitrate, low O2), time point: terminal (~4-5 doublings, model-specific) | 0.085 | 0.945 | 0.32 | -0.408 | 0.154
in vitro model: standard 7H9 glycerol, time point: constant = terminal | 0.0625 | 0.873 | 0.18 | – | 0.0807
in vitro model: valerate, time point: constant (~7 days, model-specific) | 0.0825 | 0.705 | -0.152 | – | 0.281
in vitro model: valerate, time point: terminal (~4-5 doublings, model-specific) | 0.0643 | 0.862 | 0.447 | – | 0.248
